Experimental data: patent US20230141988A1, “PHARMACEUTICAL COMPOSITION FOR USE IN THE TREATMENT OF NEUROLOGICAL DISEASES” (Aclipse One Inc., priority 2020, published 2023)
Several values for one entry are separate records, joined by “and”; a condition that tells them apart may be missing. Identical values can stand only once. Like-named read-outs stand apart in the source and are kept apart here.

What was measured:
[1] = rat, in vivo; for plasma concentration: male, SD
Method: (§1) The vehicle for the IV, subcutaneous, PO and IN formulation contained “0.1% sodium metabisulfite solution”.
(§2) Male SD rats were purchased from Si Bei Fu Laboratory Animal Technology Co. Ltd (Beijing, China). The animals were about 8 weeks old with body weights of 200-300 g on the dosing date. The animals were housed in a 12-hour light/12-hour dark cycle environment and had free access to food and water. All animals were fasted overnight and fed after 4 hours collection.
(§3) Plasma samples were collected from jugular vein at each time point after IV, subcutaneous, PO and IN administrations.
(§4) About 200 μL of blood samples were collected from each animal via jugular vein. These blood samples were placed into the tubes containing K2EDTA. And centrifugation at 3000 g for 10 minutes in a 4° C. centrifuge. The completion time from collection was less than 30 min. The stabilizing agent of ascorbic acid at 200 mg/mL was added in a proportion of 10% in plasma. The plasma samples were stored in a freezer at −75±15° C. prior to analysis. The completion time from collection was less than 60 min.
(§5) Calibration standard working solutions were prepared at concentrations of 2, 5, 10, 20, 50, 100, 500, 1000, 5000 and 10000 ng/mL by serial dilution of the standard stock solution in 50% acetonitrile in water. Quality control working solutions at concentrations of 5, 10, 20, 500 and 8000 ng/mL were prepared by serial dilution of the standard stock solution in 50% acetonitrile in water. These QC samples were prepared on the day of analysis in the same way as calibration standards.
(§6) For plasma samples, 2 μL of each calibration standard working solution (2, 5, 10, 20, 50, 100, 500, 1000, 5000 and 10000 ng/mL) was added to 20 μL of the blank SD rat plasma (with 10% 200 mg/mL ascorbic acid) to achieve calibration standards of 0.2-1000 ng/mL (0.2, 0.5, 1, 2, 5, 10, 50, 100, 500, 1000 ng/mL) in a total volume of 22 μL. Quality Control (QC) samples at 0.5 ng/mL (low-1), 1 ng/mL (low-2) and 2 ng/mL (low-3), 50 ng/mL (mid), 800 ng/mL (high) for plasma were prepared independently for those used for the calibration curves. These QC samples were prepared on the day of analysis in the same way as calibration standards. The total volumes of 22 μL of standards, 22 μL of QC samples and 22 μL of unknown samples (20 μL of unknown plasma (with 10% 200 mg/mL ascorbic acid) with 2 μL 50% acetonitrile) were added to 200 μL of acetonitrile containing IS to precipitate proteins. Then the samples were vortexed for 30 sec. After centrifugation at 4° C., 4700 rpm for 30 min, and supernatant was diluted 2 times with water, 10 μL of the diluted supernatant was injected into the LC-MS/MS system for quantitative analysis.
All the samples were processed on ice.
(§7) The LC-MS/MS system consisted of two Shimadzu LC-30AD pumps, a DGU-20A5R degasser, a Rack changer II and LCMS-8060 LC/MS/MS instrument mass spectrometer.
(§8) OD-3R Particle size 3 μm 4.6 mm×150 mm column at room temperature. The mobile phase was composed of A: Water (5 mM Ammonium Acetate); B: Ethanol (5 mM Ammonium Acetate). The flow rate was 0.5 mL/min. The injection volume was 10 μL.
(§9) A multiple reaction monitoring (MRM) method was selected for quantitative analysis. […] The instrument parameters were set as follows: ion spray voltage: 8060; heating gas flow: 10 L/min; interface temperature: 250° C.; DL temperature: 220° C.; heat block temperature: 400° C.; drying gas flow: 10 L/min.
(§10) Data acquisition was performed by Lab Solutions version 5.89 Software (Shimadzu). All concentration data was reported with 3 significant figures. Data statistics were performed using Excel 2010 software.
(§11) The linear trapezoidal algorithm was used for AUC calculation.

[2] = for AUC_%Extrap_obs: Mean, male C57BL/6J mice; for Brain concentration, Mean / Plasma concentration, Mean / CSF concentration / plasma concentration: male, C57BL/6J, mouse, in vivo, po, 25 mg/kg
Method: (§12) Male C57BL/6J mice were purchased from Si Bei Fu Laboratory Animal Technology Co. Ltd (Beijing, China). The animals were about 8 weeks old with body weights of 20-30 g on the dosing date. The animals were housed in a 12-hour light/12-hour dark cycle environment and had free access to food and water. All animals were fasted overnight and fed after 4 hours collection.
The formulation was freshly made prior to use. Preparation of formulation for oral dosing are as follows:
For Group 1 and 2, blood, CSF and brain samples were collected from 3 mice at the following time points.
Plasma samples: About 30 μL or 300 μL of blood samples were collected from each animal via dorsal metatarsal vein or heart. These blood samples were placed into the tubes containing K2EDTA. And centrifugation at 3000 g for 10 minutes in a 4° C. centrifuge. The completion time from collection was less than 30 min. The stabilizing agent of ascorbic acid at 200 mg/mL was added in a proportion of 10% in plasma. The plasma samples were stored in a freezer at −75±15° C. prior to analysis. The completion time from collection was less than 60 min.
Brain and CSF Samples: The animals were fully exsanguinated with a rising concentration of CO2 gas prior to CSF and brain collection.
For CSF collection, make an incision by scissors on the neck of the rats, and the foramen magnum is exposed to the sight of scientist. Use a syringe with a venoclysis needle to sample the CSF, the tip of the needle is insert into the membrane of foramen magnum about 1-2 mm, and then pull the stopcock a small length of the syringe to make a negative pressure, then the CSF fluids to the tube. Watch the fluid in the tube and pull the stopcock slowly, when the amount of the CSF is enough, stop and split the needle and the syringe to ensure there is no negative pressure in the tube. Then cut off the needle and collect the CSF fluid. If we could see the blood in the tube, stop immediately, split the needle and the syringe, and then cut off between the blood and CSF to ensure there is no blood in the CSF fluid. Then collect the CSF fluid. The stabilizing agent of ascorbic acid at 200 mg/mL was added in a proportion of 10% in CSF. The completion time from collection was less than 60 min.
For brain collection. Brain samples were collected at adopted time point, and washed 3 times with cold saline, then dried with clean gauze and put into the weighed tube, quick frozen in ice box and kept at −75±15° C. All brain samples were weighted and homogenized with phosphate buffered saline (PBS) by brain weight (g) to PBS volume (mL) ratio 1:3 before analysis. The stabilizing agent of ascorbic acid at 200 mg/mL was added in a proportion of 10% in Brain homogenate. The actual concentration was the detected value multiplied by the dilution factor. Brain samples were collected at designed time point, quickly homogenized and kept at −75±15° C. The completion time from collection was less than 60 min.
Calibration standard working solutions were prepared at concentrations of 0.2, 0.5, 1, 2, 5, 10, 50, 100, 500, 1000 ng/mL by serial dilution of the standard stock solution. These QC samples were prepared on the day of analysis in the same way as calibration standards.
Plasma: The desired serial concentrations of working solutions were achieved by diluting stock solution of analyte with 50% acetonitrile in water solution. 10 μL of working solutions (0.1, 0.2, 0.5, 1, 2, 5, 10, 50, 100, 500, 1000 ng/mL) were added to 10 μL of the blank C57BL/6J Mice plasma to achieve calibration standards of 0.1˜1000 ng/mL (0.1, 0.2, 0.5, 1, 2, 5, 10, 50, 100, 500, 1000 ng/mL) in a total volume of 20 μL.

[3] = subcutaneous […], plasma, mean of 3 mice
Method: 9 male C57BL/6J mice following administration of a single subcutaneous dose of 4.40 mg/kg. The vehicle for the subcutaneous formulation contained “0.1% sodium metabisulfite solution”.
as §12
For group 1, plasma samples were collected from dorsal metatarsal vein at each time point after subcutaneous administrations.
For plasma samples, about 30 μL or 300 μL of blood samples were collected from each animal via dorsal metatarsal vein or heart. These blood samples were placed into the tubes containing K2EDTA. And centrifugation at 3000 g for 10 minutes in a 4° C. centrifuge. The completion time from collection was less than 30 min. The stabilizing agent of ascorbic acid at 200 mg/mL was added in a proportion of 10% in plasma. The plasma samples were stored in a freezer at −75±15° C. prior to analysis. The completion time from collection was less than 60 min.
For brain and CSF samples, The animals were fully exsanguinated with a rising concentration of CO2 gas prior to CSF and brain collection.
For CSF collection, incision was made by scissors on the neck of the rats to expose the foramen magnum. A syringe fitted with a venoclysis needle was used to sample the CSF, the tip of the needle was inserted into the membrane of foramen magnum about 1-2 mm, and a negative pressure was applied by pulling a stopcock a small length of the syringe to extract CSF fluids into a tube. The stopcock was further actuated to until a sufficient amount of CSF was collected. There should be no blood in the CSF fluid. A stabilizing agent of ascorbic acid at 200 mg/mL was added in a proportion of 10% in CSF.
For brain collection. Brain samples were collected at an adopted time point, and washed 3 times with cold saline, then dried with clean gauze and put into the weighed tube, quick frozen in an ice box and kept at −75±15° C. All brain samples were weighted and homogenized with phosphate buffered saline (PBS) by brain weight (g) to PBS volume (mL) ratio 1:3 before analysis. The stabilizing agent of ascorbic acid at 200 mg/mL was added in a proportion of 10% in grain homogenate. The actual concentration was the detected value multiplied by the dilution factor. Brain samples were collected at designed time point, quickly homogenized and kept at −75±15° C.
Calibration standard working solutions were prepared at concentrations of 2, 5, 10, 20, 50, 100, 500, 1000, 5000 and 10000 ng/mL by serial dilution of the standard stock solution in 50% acetonitrile in water. Quality control working solutions at concentrations of 5, 10, 500 and 8000 ng/mL were prepared by serial dilution of the standard stock solution in 50% acetonitrile in water. These QC samples were prepared on the day of analysis in the same way as calibration standards.
For plasma and brain samples, 3 μL of each calibration standard working solution (2, 5, 10, 20, 50, 100, 500, 1000, 5000 and 10000 ng/mL) was added to 30 μL of the blank C57BL/6J mouse plasma or brain homogenate (with 10% 200 mg/mL ascorbic acid) to achieve calibration standards of 0.2-1000 ng/mL (0.2, 0.5, 1, 2, 5, 10, 50, 100, 500, 1000 ng/mL) in a total volume of 33 μL. Quality Control (QC) samples at 0.5 ng/mL (low-1), 1 ng/mL (low-2), 50 ng/mL (mid), 800 ng/mL (high) for plasma were prepared independently for those used for the calibration curves. These QC samples were prepared on the day of analysis in the same way as calibration standards.

[4] = Oxidation in liquid solutions; type: physicochemical; details: in the liquid solutions
in vivo [5] = test: in vivo
Method: Three non-naïve male beagle dogs supplied by Marshall Bioresources (Beijing, China) were used in this study. The animals were confirmed healthy before being assigned to the study. Each animal was given a unique identification number which was marked on ear and written on the cage card. The room(s) were controlled and monitored for relative humidity (targeted mean range 40% to 70%, and any excursion from this range for more than 3 hours will be documented as a deviation) and temperature (targeted mean range 18° C. to 26° C., and any excursion from this range will be documented as a deviation) with 10 to 20 air changes/hour. The rooms were on a 12-hour light/dark cycle except when interruptions are necessitated by study activities.
Animals were fed twice daily. Stock Dogs were fed approximately 220 grams of Certified Dog Diet daily (Beijing Keao Xieli Feed Co., Ltd. Beijing, P. R. China). These amounts could be adjusted as necessary based on food consumption of the group or an individual body weight change. For PO groups, animals were fed at 3:30 to 4:00 pm on the day prior to oral dosing and any remaining food was removed at 7:00 pm. Food was withheld until 4-hour post-dose. Animals were fed once on the day of dosing, with the amount of approximately 220 grams.
Three male non-naïve beagle dogs were assigned to this study. […] The detailed dosing and sampling regimens are described in the following two tables:
PO formulation preparations were processed in study facility on the day of dosing according to instructions provided by the sponsor. The concentrations of compounds in all dosing solutions were determined by HPLC/UV. Two aliquots were taken from each clear and three aliquots were taken from suspension formulations. All formulation samples were stored at 2-8° C. until analyzed by HPLC/UV. All dose formulation samples were analyzed in duplicate using HPLC/UV.
In plasma, approximately 0.5 mL blood was collected at each time point. All blood samples were collected from a peripheral vessel. All blood samples were transferred into commercially available tubes containing Potassium (K2) EDTA on wet ice and processed for plasma. Samples were centrifuged (3,000×g for 10 minutes at 2 to 8° C.) within 30 minutes of collection. After centrifugation, the stabilizing agent was added to the harvested plasma within 60 minutes. The samples were kept on ice and protected from sunlight (under yellow light). The stabilizing agent was ascorbic acid 200 mg/mL added in a proportion of 10% in plasma. The plasma samples were divided into two equal samples with each at least 0.2 ml (0.2*2 mL/sample) and transferred into labeled polypropylene micro-centrifuge tubes and stored frozen in a freezer set to maintain […] or lower until analyzed.
In CSF, about 0.1 mL/time point (50 μL*2 aliquots) of CSF were collected via the catheter implanted in the Cisterna Magna of conscious beagle dogs without any sedation. The procedures for CSF collection and handling were as follows: a polypropylene tube was weighed to accuracy of 0.1 mg (weight #1). CSF was collected and weighed the sample tube again (weight #2). Total CSF weight=weight #2−weight #1. The samples were kept on ice and protected from sunlight (under yellow light). Stabilizing agent was added within 60 minutes. The stabilizing agent was ascorbic acid 200 mg/mL added in a proportion of 10% in CSF. CSF samples were frozen on dry ice and stored at −60° C. or lower until bio-analysis.
For brain samples, different regions of brain were collected. Dogs were anesthetized and euthanasia according to SOP and collected the brain. The striatum, cortex and cerebellum were token rapidly and homogenized immediately (within 30 min) after being harvested. All the samples were stored at −60° C. or lower freezer finally.
For tissue homogenization, the homogenization solution was methanol:10 mM PBS=1:2 and set on dry ice. An empty conical tube was weighed, recorded, and set on dry ice.

in vivo [6] = details: male, SD, rat
Method: The vehicle for the IN and PO formulation contained “0.1% sodium metabisulfite solution”.
The animals were about 8 weeks old with body weights of 200-300 g on the dosing date. The animals were housed in a 12-hour light/12-hour dark cycle environment and had free access to food and water. All animals were fasted overnight and fed after 4 hours collection.
For group 2, plasma, CSF and brain samples were collected at 0.5 and 1 h post dose.
For Group 2 (PO dose, 10.56 mg/kg), blood, CSF and brain samples were collected from 3 mice at two time point: 0.5 h and 1 h post dose.
For plasma samples, about 200 μL of blood samples were collected from each animal via jugular vein. These blood samples were placed into the tubes containing K2EDTA, and centrifuged at 3000 g for 10 minutes in a 4° C. centrifuge. The completion time from collection was less than 30 min. The stabilizing agent of ascorbic acid at 200 mg/mL was added in a proportion of 10% in plasma. The plasma samples were stored in a freezer at −75±15° C. prior to analysis. The completion time from collection was less than 60 min.
For brain and CSF samples, The animals were fully exsanguinated with a rising concentration of CO2 gas prior to CSF and brain collection. […]
For brain collection. […] The actual concentration was the detected value multiplied by the dilution factor. […]

in vivo [7] = details: male, SD, rat; for AUC(0-inf): AUCInf; for AUC(0-t): AUClast; for MRT inf: MRTInf
Method: as §1, §2, §3, §4, §5, §6
All the samples were processed on ice.
as §7, §8, §9, §10, §11

[8] = male, beagle, dog, in vivo, po, 10 mg/kg
[9] = male, beagle, dog, in vivo, po, 10 mg/kg, 0.5 h
[10] = single PO 10 mg/kg, 0.500 h, individual animal
[11] = 0.88 mg/kg, plasma concentration
[12] = iv, 0.88 mg/kg, plasma concentration
[13] = iv, 0.88 mg/kg, plasma concentration, Mean

Which results are given for CN1CCc2cccc3c2[C@@H]1Cc1ccc(O)c(O)c1-3?
plasma concentration ([1]; 0.5 h): 35.7 ng/mL; plasma concentration ([1]; iv, 0.88 mg/kg, 1 h): 6.23 ng/mL; animal death related to drug administration [1]: no animal death related to drug administration; drug-related changes in clinical signs and behavioral responses [1]: no obvious drug-related changes in clinical signs and behavioral responses; AUC_%Extrap_obs ([2]; CSF, last day (Day 4) of repeated oral dose 25 mg/kg): 3.18%; AUC_%Extrap_obs ([2]; brain, single oral dose 25 mg/kg): 18.5%; Brain concentration, Mean ([2]; 0.5 h): 90 ng/g; Plasma concentration, Mean ([2]; 0.5 h): 453 ng/mL; Brain concentration, Mean ([2]; 1 h): 36.3 ng/g; CSF concentration ([2]; 1 h): 3.06 ng/mL; Plasma concentration, Mean ([2]; 1 h): 153 ng/mL; Brain concentration, Mean ([2]; 2 h): 21.9 ng/g; Brain concentration, Mean ([2]; 3 h): 6.80 ng/g; Plasma concentration, Mean ([2]; 3 h): 48.2 ng/mL; CSF concentration ([2]; 4 h): 3.42 ng/mL; plasma concentration ([2]; 8 h): 0.599 ng/mL; plasma concentration ([2]; 12 h): 0.150 ng/mL; AUClast/D [3]: 73.8 mg·h/mL; oxidation [4]: significant oxidation; AUC(0-t) (in vivo [5]; [8]): 86.4 ng·h/mL; Tlast (in vivo [5]; [8]): 0.500 h; CSF concentration (in vivo [5]; [9]): 2.71 ng/mL; Striatum concentration (in vivo [5]; [9]): 145 ng/g; Kp (in vivo [5]; male, beagle, dog, in vivo, po, 10 mg/kg, AUClast ratio of CSF to plasma): 0.00888 ± 0.0031; Cmax (in vivo [5]; male, beagle, dog, in vivo, po, 10 mg/kg, Cmax, plasma, single PO 10 mg/kg, individual animal): 265 ng/mL; MRT last (in vivo [5]; male, beagle, dog, in vivo, po, 10 mg/kg, MRTlast): 19.7 min; concentration at […] (in vivo [5]; male, beagle, dog, in vivo, po, 10 mg/kg, plasma concentration): 255 ng/mL; concentration at 0.033 h (in vivo [5]; male, beagle, dog, in vivo, po, 10 mg/kg, plasma concentration, single PO 10 mg/kg, 119 s, individual animal): 2.92 ng/mL; Kp at 0.5 h (in vivo [5]; male, beagle, dog, in vivo, po, 10 mg/kg, ratio of cerebellum/plasma): 0.505 ± 0.117; Kp at 0.5 h (in vivo [5]; male, beagle, dog, in vivo, po, 10 mg/kg, ratio of cortex/plasma): 0.704 ± 0.184; Kp at 0.5 h (in vivo [5]; male, beagle, dog, in vivo, po, 10 mg/kg, ratio of striatum/plasma): 0.666 ± 0.0544; Cerebellum concentration (in vivo [5]; [10]): 129 ng/g; Cortex concentration (in vivo [5]; [10]): 124 ng/g; Striatum concentration (in vivo [5]; [10]): 137 ng/g; Kp at 0.5 h (in vivo [6]): 0.233; concentration at 0.5 h (in vivo [6]): 299 ng/g; concentration at 0.5 h (in vivo [7]): 31 ng/mL; concentration at 1 h (in vivo [7]): 8.96 ng/mL; concentration at 2 h (in vivo [7]): 6.87 ng/mL; concentration at 8 h (in vivo [7]): 0.651 ng/mL; concentration at […] (in vivo [7]): 114 ng/mL; concentration at […] (in vivo [7]; 0.88 mg/kg): 119 ng/mL; concentration at 2 min (in vivo [7]; [11]): 42.7 ng/mL; concentration at 0.5 h (in vivo [7]; [11]): 40.5 ng/mL; concentration at 1 h (in vivo [7]; [11]): 5.76 ng/mL; concentration at 2 h (in vivo [7]; [11]): 1.52 ng/mL; concentration at 8 h (in vivo [7]; [11]): 0.877 ng/mL; concentration at […] (in vivo [7]; [11]): 162 ng/mL and 151 ng/mL and 107 ng/mL; AUC(0-inf) (in vivo [7]; iv, 0.88 mg/kg): 86.6 ng·h/mL; AUC(0-t) (in vivo [7]; iv, 0.88 mg/kg): 83.2 ng·h/mL; C0 (in vivo [7]; iv, 0.88 mg/kg, C0): 527 ng/mL; clearance (in vivo [7]; iv, 0.88 mg/kg, Cl): 169 mL/min/kg; MRT inf (in vivo [7]; iv, 0.88 mg/kg): 75.6 min; Vd (in vivo [7]; iv, 0.88 mg/kg, Vss): 12.8 L/kg; concentration at 2 min (in vivo [7]; [12]): 353 ng/mL; concentration at 0.5 h (in vivo [7]; [12]): 17.8 ng/mL; concentration at 1 h (in vivo [7]; [12]): 7.6 ng/mL; concentration at 2 h (in vivo [7]; [12]): 4.32 ng/mL; concentration at 8 h (in vivo [7]; [12]): 0.88 ng/mL; concentration at […] (in vivo [7]; [12]): 104 ng/mL; concentration at 2 min (in vivo [7]; [13]): 339 ng/mL; concentration at 0.5 h (in vivo [7]; [13]): 16.4 ng/mL; concentration at 1 h (in vivo [7]; [13]): 6.37 ng/mL; concentration at 2 h (in vivo [7]; [13]): 3.67 ng/mL; concentration at 8 h (in vivo [7]; [13]): 0.777 ng/mL; AUC(0-inf) (in vivo [7]; sc, 0.88 mg/kg): 71.2 ng·h/mL; AUC(0-t) (in vivo [7]; sc, 0.88 mg/kg): 70.2 ng·h/mL; Cmax (in vivo [7]; sc, 0.88 mg/kg, Cmax): 141 ng/mL; MRT inf (in vivo [7]; sc, 0.88 mg/kg): 52.4 min
